The results in this text go back to patent US20120277281A1, “POLYNUCLEOTIDES FOR MEDICAL USE” (MAX-DELBRÜCK-CENTRUM FÜR MOLEKULARE MEDIZIN, priority 2009, published 2012).

What all share (assay type): cell-based, human
One assay has as its system KM-H2 cells. The assay can be described thus: [3H]-thymidine incorporation in KM-H2 cells after CSF-1 inhibition. The following applies: 80 μg/ml, pulsed after 24 h. The method, then: FIG. 3. HRS cells depend on CSF1R activity. (A) L540Cy cells were left untreated (−) or treated with the indicated amounts rhCSF-1 (closed bars) or the respective control (open bars) under serum reduced conditions (1% FCS). After 48 hours, cells were pulsed with 1 μCi [^3H]-thymidine per well for a further 20 hours, and [^3H]-thymidine incorporation was determined cpm, counts per minute. Data are represented as mean±SD. (3A) [^3H]-thymidine incorporation in L540Cy cells left untreated (−) or treated with the indicated amounts of rhCSF-1 (black bars) or water control (open bars) under serum-reduced conditions (1% FCS) determined after 48 h. Data are represented as means±s.d. […] After 24 hours, cells were pulsed with [^3H]-thymidine incorporation and analyzed as described in (A). […] CSF1R tyrosine phosphorylation was analyzed as described in FIG. 1F. […]
DNA synthesis was determined by [^3H]-thymidine incorporation assays using standard protocols. The percentage of viable and apoptotic cells was determined by annexin V-FITC/propidium iodide (PI) double-staining (Bender MedSystems) and subsequent FACS analysis.
We determined DNA synthesis by [^3H]-thymidine incorporation assays using standard protocols. In case of L540Cy cells (FIG. 1d), after 48 hours, cells were pulsed with 1 μCi [^3H]-thymidine per well for a further 20 hours, and [^3H]-thymidine incorporation was determined. […]
On the technique in general: Uptake of a labelled nucleoside into DNA is a usual measure of proliferation.

A further assay relates to CSF1R. The assay can be described thus: rhCSF1-induced CSF1R tyrosine phosphorylation in DEL cells (IP, immunoblot). Conditions: preincubation with CSF1R:Fc. On the procedure: FIG. 9. (A) Analysis of CSF1 mRNA expression by Northern blot in various cell lines, as indicated. Expression of GAPDH was analyzed as a control. Note, that Hodgkin cell lines overexpress two splice variants compared to control cell lines Reh, Namalwa and BL60, which lack CSF1 expression. (B) To test the functionality of the decoy-receptor-like CSF1R:Fc inhibitor, anaplastic large cell lymphoma derived DEL cells, which show an abundant CSF1R expression (Mathas, S. et al., PNAS 106, 5831-5836 (2009)), were left untreated or stimulated with rhCSF1 with or without preincubation with CSF1R:Fc or the respective IgG1:Fc control. Thereafter, IP was performed with a CSF1R-specific antibody or the respective isotype control (IC), and CSF1R tyrosine phosphorylation was detected by immunoblot with antibody to phospho-tyrosine (p-Tyr; upper panel). As a control, the membrane was reprobed with antibody to CSF1R (lower panel). Note, that CSF1R:Fc prevents rhCSF-1 induced CSF1R phosphorylation.
Background: A western blot detects proteins with antibodies after separation by electrophoresis.

Assay [1] concerns canonical and non-canonical CSF1R transcripts. In words: RT-PCR of canonical and non-canonical CSF1R transcripts in Reh and Namalwa cells. The following applies: single agent. On the procedure: FIG. 7. Analysis of CSF1R LTR DNA methylation and CBFA2T3 expression. Expression of the transcriptional corepressor CBFA2T3 is lost in HRS cells. (A) Activation of the non-canonical CSF1R transcripts following treatment with TSA and/or 5-aza-dC. The non-HRS cell lines Reh and Namalwa were left untreated or treated with 5-aza-dC, TSA, or 5-aza-dC in combination with TSA. The expression of canonical and non-canonical CSF1R transcripts was analyzed by RT-PCR. The analysis of KM-H2 cells and of GAPDH expression were used as controls. (7A) Analysis of canonical and noncanonical CSF1R transcripts following treatment of Reh and Namalwa cells with TSA and/or 5-aza-dC. […] The expression of both canonical (+720 to +1,325) and noncanonical (−5,090 to +148 and −6152 to −143) CSF1R transcripts was analyzed by RT-PCR. […] GAPDH expression was analyzed as a control. […] (B) Various cell lines and primary CD19^+ human tonsilar B cells were analyzed for expression of CBFA2T3 mRNA by RT-PCR (upper panel) and protein by Western blotting (WB; lower panel) expression. […] Expression of GAPDH and β-actin were analyzed as controls. […] GAPDH and beta-actin expression were analyzed as controls. n.s., non-specific. […] Schematic overview of the regions analyzed for DNA methylation (upper panel) and results of bisulfite pyrosequencing in lymphoma/leukemia cell lines and controls (lower panel). […]

As for “CSF1R:Fc: decoy-receptor-like inhibitor that binds to and neutralizes CSF-1 (329-MR, R&D Systems)”, the “[3H]-thymidine incorporation” value with KM-H2 cells is “strong reduction”. In addition, the “rhCSF-1 induced CSF1R phosphorylation” value in the assay on CSF1R is reported as “prevents”.

On to `CC(/C=C/C(=O)NO)=C\[C@@H](C)C(=O)c1ccc(N(C)C)cc1` [TSA, Trichostatin A], for which, in assay [1], the “induction of canonical and non-canonical CSF1R transcripts” value is recorded as “weakly induced”.

In the case of `Nc1ncn([C@H]2C[C@H](O)[C@@H](CO)O2)c(=O)n1` [Compound 5-aza-dC, 5-aza-2′-deoxycytidine], the “induction of canonical and non-canonical CSF1R transcripts” value in assay [1] is “weakly induced”.
